Results reported in ChEMBL document CHEMBL5247652, “Discovery of Novel Substrate-Competitive Lysine Methyltransferase G9a Inhibitors as Anticancer Agents” (J Med Chem, 2023).
≈ marks a conversion by molar mass, not a printed value. Calls of active or inactive are those of the source. The calls are words filed in the database; no cut-off is given here.

Assays:
[1] = tested on: MOLT-4; assay: Downregulation of H3K9 dimethylation in human MOLT-4 cells at 1 uM by Western blot analysis; format: functional, cell-based
[2] = AUC (0 to infinity) in ICR mouse at 25 mg/kg, ip; format: ADME, organism-based; set-up: dose 25 mg/kg, route ip; conditions: in vivo
[3] = Cmax in ICR mouse at 25 mg/kg, ip; format: ADME, organism-based; set-up: dose 25 mg/kg, route ip; conditions: in vivo
[4] = Half life in ICR mouse at 25 mg/kg, ip; format: ADME, organism-based; conditions: in vivo
[5] = Tmax in ICR mouse at 25 mg/kg, ip; format: ADME, organism-based; conditions: in vivo
[6] = biological target: T1, Histone-lysine N-methyltransferase EHMT2 (Homo sapiens, UniProt Q96KQ7); assay: Inhibition of N-terminal GST-tagged human recombinant G9a (785 to 1210 residues) expressed in baculovirus infected Sf9 cells incubated for 1 hr by AlphaLISA analysis
T1 sequence (Q96KQ7 whole entry): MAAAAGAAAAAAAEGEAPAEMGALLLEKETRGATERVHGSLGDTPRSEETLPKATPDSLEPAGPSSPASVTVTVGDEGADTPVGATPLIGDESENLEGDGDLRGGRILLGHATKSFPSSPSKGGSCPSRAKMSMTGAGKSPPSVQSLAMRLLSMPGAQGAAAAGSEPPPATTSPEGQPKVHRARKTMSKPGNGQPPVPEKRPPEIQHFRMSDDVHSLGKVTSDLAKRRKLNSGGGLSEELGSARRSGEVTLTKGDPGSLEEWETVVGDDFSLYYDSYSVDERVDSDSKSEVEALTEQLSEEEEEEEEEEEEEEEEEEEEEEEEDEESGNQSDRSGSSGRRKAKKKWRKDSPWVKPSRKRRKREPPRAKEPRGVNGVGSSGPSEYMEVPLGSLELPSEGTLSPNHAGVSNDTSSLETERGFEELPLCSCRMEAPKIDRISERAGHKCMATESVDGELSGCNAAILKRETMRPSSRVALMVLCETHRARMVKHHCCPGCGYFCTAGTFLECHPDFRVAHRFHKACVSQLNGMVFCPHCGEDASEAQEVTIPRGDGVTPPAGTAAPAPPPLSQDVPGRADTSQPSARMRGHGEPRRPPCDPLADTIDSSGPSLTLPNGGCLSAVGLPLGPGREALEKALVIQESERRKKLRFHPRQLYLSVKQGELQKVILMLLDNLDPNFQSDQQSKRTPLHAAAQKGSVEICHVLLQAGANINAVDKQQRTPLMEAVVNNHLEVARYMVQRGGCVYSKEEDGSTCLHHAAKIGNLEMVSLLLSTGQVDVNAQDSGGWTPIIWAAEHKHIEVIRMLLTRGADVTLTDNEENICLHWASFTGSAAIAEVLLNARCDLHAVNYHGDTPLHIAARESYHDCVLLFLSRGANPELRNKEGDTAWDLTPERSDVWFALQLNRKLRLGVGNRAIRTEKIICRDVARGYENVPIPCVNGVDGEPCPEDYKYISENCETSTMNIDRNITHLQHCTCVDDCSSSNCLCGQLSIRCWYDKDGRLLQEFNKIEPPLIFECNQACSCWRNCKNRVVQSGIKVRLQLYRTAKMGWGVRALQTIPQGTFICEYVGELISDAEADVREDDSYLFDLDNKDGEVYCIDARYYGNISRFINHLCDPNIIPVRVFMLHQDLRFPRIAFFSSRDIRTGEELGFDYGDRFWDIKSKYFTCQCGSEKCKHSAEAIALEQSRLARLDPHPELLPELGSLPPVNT

[7] = tested on: MOLT-4; assay: Antiproliferative activity against human MOLT-4 cells assessed as inhibition of cell growth with replenishment of medium with compound on day 4 and 7 and measured after 12 days by ATPlite assay; format: functional; conditions: MOLT-4, 288 h, time 12 day
[8] = Microsomal stability in human liver microsomes assessed as parent compound remaining after 30 mins in presence of NADPH by LC -MS/MS analysis; format: ADME, Microsome; conditions: read-out: Stability
[9] = Aqueous solubility of compound at pH 7.4 measured for 1 hr by UV-plate reader analysis; format: physicochemical; conditions: buffer
[10] = Microsomal stability in mouse liver microsomes assessed as parent compound remaining after 30 mins in presence of NADPH by LC -MS/MS analysis; format: ADME, Microsome; conditions: read-out: Stability
[11] = tested on: MOLT-4; assay: Antiproliferative activity against human MOLT-4 cells assessed as inhibition of cell growth with replenishment of medium with compound on day 4 and 7 by ATPlite assay; format: functional
[12] = Permeability of compound by PAMPA assay; format: ADME; conditions: for Papp: read-out: permeability
[13] = tested on: MOLT-4; assay: Downregulation of H3K9 dimethylation in human MOLT-4 cells at 0.1 uM by Western blot analysis; format: functional, cell-based
[14] = biological target: T2, Histone-lysine N-methyltransferase EHMT1 (Homo sapiens, UniProt Q9H9B1); assay: Inhibition of GLP (unknown origin)
T2 sequence (Q9H9B1 whole entry): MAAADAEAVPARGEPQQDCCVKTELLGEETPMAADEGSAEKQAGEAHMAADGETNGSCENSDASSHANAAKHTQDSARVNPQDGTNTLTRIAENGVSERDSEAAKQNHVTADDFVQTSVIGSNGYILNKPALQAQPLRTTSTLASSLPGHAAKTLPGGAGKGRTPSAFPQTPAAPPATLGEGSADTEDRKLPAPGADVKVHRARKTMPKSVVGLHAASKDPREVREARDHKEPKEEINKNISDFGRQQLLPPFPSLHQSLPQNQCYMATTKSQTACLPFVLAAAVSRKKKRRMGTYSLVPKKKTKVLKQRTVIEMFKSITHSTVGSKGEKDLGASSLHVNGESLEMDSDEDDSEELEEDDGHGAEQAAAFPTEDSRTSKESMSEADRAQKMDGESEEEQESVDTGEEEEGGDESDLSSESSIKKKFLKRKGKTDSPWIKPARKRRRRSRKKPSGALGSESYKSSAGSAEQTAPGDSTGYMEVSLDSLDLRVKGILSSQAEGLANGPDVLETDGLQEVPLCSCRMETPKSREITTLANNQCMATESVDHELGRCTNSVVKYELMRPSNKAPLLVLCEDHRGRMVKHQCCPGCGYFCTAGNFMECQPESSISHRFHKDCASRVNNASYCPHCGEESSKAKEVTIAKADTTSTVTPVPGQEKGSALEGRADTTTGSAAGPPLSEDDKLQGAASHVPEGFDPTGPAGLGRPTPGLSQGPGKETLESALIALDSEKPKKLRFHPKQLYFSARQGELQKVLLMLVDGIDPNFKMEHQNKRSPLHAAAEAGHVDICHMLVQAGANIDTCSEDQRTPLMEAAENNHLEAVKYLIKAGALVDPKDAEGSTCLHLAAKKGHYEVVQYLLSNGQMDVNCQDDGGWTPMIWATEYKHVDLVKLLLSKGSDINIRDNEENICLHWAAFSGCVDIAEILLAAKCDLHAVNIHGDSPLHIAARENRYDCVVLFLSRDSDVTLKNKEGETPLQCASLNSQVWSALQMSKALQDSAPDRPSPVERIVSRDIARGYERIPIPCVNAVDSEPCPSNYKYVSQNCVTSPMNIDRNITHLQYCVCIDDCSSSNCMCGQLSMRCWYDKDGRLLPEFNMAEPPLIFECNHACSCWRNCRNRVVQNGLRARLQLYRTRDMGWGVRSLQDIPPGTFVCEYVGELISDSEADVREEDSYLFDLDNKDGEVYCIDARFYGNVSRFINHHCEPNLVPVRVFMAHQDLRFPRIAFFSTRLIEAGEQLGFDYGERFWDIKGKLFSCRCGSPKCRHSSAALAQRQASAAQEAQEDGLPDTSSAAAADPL

[15] = biological target: T1, Histone-lysine N-methyltransferase EHMT2; assay: Inhibition of G9a (unknown origin)

Row | Structure (SMILES) | IC50 [6] [µM] | GI50 [7] [µM] | remaining at 0.5 h [8] [%] | solubility at 1 h [9] [µM] | remaining at 0.5 h [10] [%] | GI50 [11] [µM] | Papp [12] [×10⁻⁶ cm/s] | further results
1 | Cc1c(C(=O)N[C@H](CCC2CC2)C(=O)Nc2ccccc2)[nH]c2c1C(=O)CC(C)(C)C2 | 2.1 | 1.79 |  |  |  |  |  | Activity [1]: inactive; AUC(0-inf) [2]: 10.3 µM·h; Cmax [3]: 4.14 µM; half-life [4]: 0.58 h; Tmax [5]: 4 h
2 | Cc1c(C(=O)NC(CCC2CC2)C(=O)Nc2ccccc2)[nH]c2c1C(=O)CC(C)(C)C2 (racemic) |  | 1.79 |  |  |  |  |  | 
3 | Cc1c(C(=O)NC(CCC2CC2)C(=O)Nc2ccc(C#N)cc2)[nH]c2c1C(=O)CC(C)(C)C2 (racemic) | 0.0667 | 0.278 |  |  |  |  |  | 
4 | Cc1ccc(NC(=O)[C@@H](CCC2CC2)NC(=O)c2[nH]c3c(c2C)C(=O)CC(C)(C)C3)cn1 | 0.05 |  | 40.2 | 50.8 (≈ 22.2 µg/mL) | 38.1 | 0.176 | 9.64 | 
5 | CC(C)c1c(C(=O)N[C@@H](CCC2CC2)C(=O)Nc2ccc(C#N)cc2)[nH]c2c1C(=O)CC(C)(C)C2 | 0.055 |  | 1.8 | 3.7 (≈ 1.76 µg/mL) | 70.8 | 0.0913 |  | 
6 | Cc1c(C(=O)N[C@@H](CCC2CC2)C(=O)Nc2ccccc2)[nH]c2c1C(=O)CC(C)(C)C2 | 0.0396 |  | 36.5 | 32.4 (≈ 13.7 µg/mL) | 7.1 | 0.0615 | 6.35 | Activity [13]: Active
7 | CCc1c(C(=O)N[C@@H](CCC2CC2)C(=O)Nc2ccc(C#N)cc2)[nH]c2c1C(=O)CC(C)(C)C2 | 0.05 |  | 51.9 | 4 (≈ 1.84 µg/mL) | 40.5 | 0.22 |  | 
8 | CCCCC(NC(=O)c1[nH]c2c(c1C)C(=O)CC(C)(C)C2)C(=O)Nc1ccccc1Cl (racemic) | 1.08 |  | 30 | 13.9 (≈ 6.17 µg/mL) | 0.1 |  | 7.16 | 
9 | CCCCC(NC(=O)c1[nH]c2c(c1C)C(=O)CC(C)(C)C2)C(=O)Nc1ccc(C#N)cc1 (racemic) | 0.446 |  | 89.5 | 12.9 (≈ 5.61 µg/mL) | 63.9 |  | 3.68 | 
10 | CCCCC(NC(=O)c1[nH]c2c(c1C)C(=O)CC(C)(C)C2)C(=O)Nc1ccncc1 (racemic) | 1.14 |  | 15.7 | 133 (≈ 54.6 µg/mL) | 59.4 |  | 3.63 | 
11 | CCCCC(NC(=O)c1[nH]c2c(c1C)C(=O)CC(C)(C)C2)C(=O)Nc1ccccc1C#N (racemic) | 1.57 |  | 40.8 | 15.5 (≈ 6.74 µg/mL) | 5.5 |  | 7.85 | 
12 | CCCCC(NC(=O)c1[nH]c2c(c1C)C(=O)CC(C)(C)C2)C(=O)Nc1ccccn1 (racemic) | 4.26 |  | 68.8 | 62.1 (≈ 25.5 µg/mL) | 25.1 |  | 11.2 | 
13 | COc1cc2c(NC3CCN(C(C)C)CC3)nc(C3CCCCC3)nc2cc1OCCCN1CCCC1 |  | 0.188 | 89.7 | > 200 | 67 | 0.188 |  | permeability [12]: 1.89 10^-6 cm/s
14 | COc1cc2c(cc1C1=CCN(C)CCC1)N=C(N)C21CCC1 |  |  |  |  |  |  |  | IC50 [14]: 0.0757 µM; IC50 [15]: 0.0126 µM
15 | Cc1c(C(=O)N[C@@H](CCC2CC2)C(=O)Nc2ccc(C#N)cc2)[nH]c2c1C(=O)CC(C)(C)C2 | 0.027 | 0.0213 | 55.5 | 13.6 (≈ 6.07 µg/mL) | 19.3 | 0.0213 | 3.12 | Activity [13]: Active; IC50 ([6]; sf9): 0.027 µM
